Experimental data from patent publication US6790652B1, “Method and apparatus for high density format screening for bioactive molecules” (BioImage A/S, priority 1998, dated 2004).
Read-outs that look alike come from different tables or passages of the source.

How the values were obtained:
BHKhM1 cells = experiment: Fluo-3 calcium response of BHKhM1 cells on porous membrane lowered onto compound spots on glass; type: cell-based; conditions: approx. 10 nanoliters
Protocol: Ionomycin was printed onto a glass surface at two concentrations (10 mM and 1 mM), and thapsigargin was printed onto the surface at 1 mM. All spots were allowed to dry. The volume of liquid spotted was approx. 10 nanoliters per spot. At the time indicated as 0 s the still-wet membrane with the cells was lowered down onto the glass surface so that the membrane and the glass came in direct contact, thereby dissolving the compounds deposited in the spots.

A10 smooth muscle cells [1] = conditions: read-out: EC50 for a mitochondrial depolarisation in these cells, known value; cited from earlier work
A10 smooth muscle cells [2] = conditions: for response of detector cells (JC-1 fluorescence): five-concentration grid
Protocol: Cells were grown to confluence on tissue culture treated polystyrene in DMEM 10% FCS, 100 μg/ml streptomycin and 100 IU/ml penicillin. […] FCCP. FCCP (Sigma) was printed onto a supported porous aluminium oxide filter (Anopore, Whatman International Ltd, Maidstone, Kent, UK) in a 5×5 spot grid, at a single concentration of 50 μM in DMSO, or as five rows of five spots (50, 5, […], 0.05 and 0.005 μM in DMSO) and allowed to dry. The volume of liquid in each spot was approximately 1 nanoliter. The A10 cells were loaded for 25 min in KRW supplemented with 10% FCS and 5 μM JC-1 (Molecular Probes Inc.) at 37° C. After three washes in KRW, the cells were placed on the stage of a Nikon Diaphot epifluorescence microscope and imaged using a 2× plan apochromatic objective and a CCD camera (Princeton Instruments, NY USA). The cells were excited by 450-490 nm light and light emitted from the cells was filtered by a dichroic mirror (505 nm) and an emission filter (510-560 nm). Exposure/ntegration times of 0.5 s were used and images acquired at 4 s intervals. At the time indicated as 0 in FIGS. 8 and 9 a filter with spots of FCCP in the patterns mentioned above was lowered down into the buffer overlying the cells and rapidly adjusted to a distance of about 300 μm above the cell layer and thereafter fixed in that position.

SMILES	Fluo-3 fluorescence response (time profile) (BHKhM1 cells; spots printed at 1 mM)	Fluo-3 fluorescence response (onset, spatial size, intensity) (BHKhM1 cells; spots printed at 10 mM)	Fluo-3 fluorescence response (time profile) (BHKhM1 cells; spots printed at 10 mM)	EC50 (A10 smooth muscle cells [1]) [nM]	response of detector cells (JC-1 fluorescence) (A10 smooth muscle cells [2]; spot concentration 0.005 μM in DMSO)	response of detector cells (JC-1 fluorescence) (A10 smooth muscle cells [2]; spot concentration 0.05 μM in DMSO)	response of detector cells (JC-1 fluorescence) (A10 smooth muscle cells [2]; spot concentration 0.5 μM in DMSO)	response of detector cells (JC-1 fluorescence) (A10 smooth muscle cells [2]; spot concentration 5 μM in DMSO)	response of detector cells (JC-1 fluorescence) (A10 smooth muscle cells [2]; spot concentration 50 μM in DMSO)	fluorescence intensity time profile (mitochondrial membrane depolarisation) (A10 smooth muscle cells [2]; spots of 50 μM in DMSO, 5×5 grid, single concentration)	lag phase before rise in fluorescence intensity (A10 smooth muscle cells [2]; spots of 50 μM in DMSO, approx. 1 nanoliter, five central spots) [s]
C[C@H](CCC(=O)O)C[C@H](C)C[C@H](C)C(=O)/C=C(\O)[C@H](C)C[C@H](C)C/C=C/[C@@H](C)[C@@H](O)[C@@H](C)[C@@H](O)C[C@@H]1CC[C@@](C)([C@H]2CC[C@@](C)([C@@H](C)O)O2)O1 [Ionomycin, ionomycin]	sustained responses	earliest, spatially largest, and most intense response	sustained responses	–	–	–	–	–	–	–	–
C/C=C(/C)C(=O)O[C@H]1C(C)=C2[C@H]([C@@H]1OC(=O)CCCCCCC)[C@@](C)(OC(C)=O)C[C@H](OC(=O)CCC)[C@@]1(O)[C@H]2OC(=O)[C@@]1(C)O [thapsigargin]	transient and lower in intensity than that of either concentration of ionomycin	–	–	–	–	–	–	–	–	–	–
N#CC(C#N)=NNc1ccc(OC(F)(F)F)cc1 [FCCP, carbonyl cyanide p-trifluoromethoxyphenylhydrazone]	–	–	–	~8	do not show detectable responses	do not show detectable responses	clearly give positive responses	clearly give positive responses	quickest response	steep rise in fluorescence intensity	10 to 15
